Data taken from US10945992B1, “Dosage forms of rofecoxib and related methods” (Tremeau Pharmaceuticals, Inc., priority 2019, dated 2021).
Read-outs that look alike come from different tables or passages of the source.

Key:
Solubility of rofecoxib = type: physicochemical
Protocol: In some embodiments, rofecoxib is a white to off-white to light yellow powder. […] The 50 mg tablets may also contain red ferric oxide. […] Added as preservatives are sodium methylparaben about 0.13% and sodium propylparaben about 0.02%.
https://www.ccdc.cam.ac.uk/structures/Search?Compound=Rofecoxib&DatabaseToSearch=Published). […] Rofecoxib has no ionizable moieties and cannot form salts; the solubility of rofecoxib cannot be increased by changing pH. Therefore, in some embodiments, rofecoxib is micronized in the final step of the manufacturing process in order to increase dissolution rate. Description of Manufacturing Process and Process Controls for Rofecoxib Tablets

COX-2 = COX-2 (Homo sapiens, UniProt P35354); details: at therapeutic concentrations; cited from earlier work
[1] = cited from earlier work
[2] = TRM-201-PK-102 safety: treatment-emergent adverse events; type: in vivo, human
Description: The timing and frequency of all safety assessments was listed in the schedule of events (Table 19). Safety and tolerability included monitoring and recording of AEs, clinical laboratory assessments (hematology, serum chemistry, and urinalysis), vital sign measurements, 12-lead ECG assessments, and physical examination findings. […] If clinical significance was noted, the result and reason for significance were documented. Any abnormal laboratory test results (hematology, clinical chemistry, or urinalysis) or other safety assessments (e.g., ECGs, vital sign measurements), including those that worsen from baseline, felt to be clinically significant in the medical and scientific judgment of the investigator were to be recorded as AEs or SAEs.
The investigator was responsible for reporting all AEs that were observed or reported during the study, regardless of their relationship to study drug or their clinical significance. If there was any doubt as to whether a clinical observation was an AE, the event was reported. An AE was defined as any untoward medical occurrence in a subject enrolled into this study regardless of its causal relationship to study drug. Subjects were instructed to contact the investigator at any time after enrollment if any symptoms developed. A treatment-emergent AE (TEAE) was defined as any event not present before exposure to study drug or any event already present that worsens in either intensity or frequency after exposure to study drug.
All safety data were summarized. The incidence of adverse events was presented by the MedDRA system organ class and preferred term, relationship to the test article, and severity. Descriptive statistics of clinical laboratory results and vital signs were presented, as well as summaries of changes from baseline (from the Check-in visit(s)) and of clinically notable values. All AE data were presented in a data listing TEAEs were summarized overall, as well as by severity and relationship to study drug. Serious AEs and AEs leading to discontinuation of study drug were also presented in the data listings and summarized. Actual values and changes from Baseline for clinical laboratory test results, vital sign measurements, and 12-lead ECG results were summarized at each time point using descriptive statistics (number of subjects, mean, SD, median, minimum, and maximum).

[3] = LC-MS/MS method validation: stability of rofecoxib; type: physicochemical, human
Description: In order to support clinical studies with TRM-201 (rofecoxib), a method was developed for the determination of rofecoxib in human plasma by LC-MS/MS. This method was validated in accordance with the FDA Good Laboratory Practice Regulations (GLP) as set forth in Title 21 of the U S. Code of Federal Regulations Part 58 as well as FDA Guidance for Industry: Bioanalytical Method Validation, May 2018.

COX-2, sequence (P35354 18-604): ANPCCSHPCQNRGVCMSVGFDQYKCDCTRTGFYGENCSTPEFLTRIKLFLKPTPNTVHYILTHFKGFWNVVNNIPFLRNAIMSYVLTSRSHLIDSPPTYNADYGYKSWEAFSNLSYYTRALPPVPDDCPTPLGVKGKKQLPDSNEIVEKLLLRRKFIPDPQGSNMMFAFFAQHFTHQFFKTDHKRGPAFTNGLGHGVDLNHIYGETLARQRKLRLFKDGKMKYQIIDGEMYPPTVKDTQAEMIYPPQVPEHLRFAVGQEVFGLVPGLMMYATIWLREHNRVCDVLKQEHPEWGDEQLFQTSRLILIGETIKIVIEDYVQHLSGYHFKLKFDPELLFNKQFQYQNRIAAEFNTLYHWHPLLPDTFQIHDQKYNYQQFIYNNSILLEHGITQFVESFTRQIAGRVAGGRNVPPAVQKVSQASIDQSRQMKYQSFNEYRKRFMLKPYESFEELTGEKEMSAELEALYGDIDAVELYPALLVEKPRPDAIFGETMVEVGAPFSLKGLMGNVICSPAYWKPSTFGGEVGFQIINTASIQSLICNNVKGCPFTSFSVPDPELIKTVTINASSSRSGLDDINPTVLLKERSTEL

CS(=O)(=O)c1ccc(C2=C(c3ccccc3)C(=O)OC2)cc1 [TRM-201, 4-[4-(methylsulfonyl)phenyl]-3-phenyl-2(5H)-furanone]
solubility (Solubility of rofecoxib; acetone): sparingly soluble
solubility (Solubility of rofecoxib; ethanol): very slightly soluble
solubility (Solubility of rofecoxib; isopropyl acetate): slightly soluble
solubility (Solubility of rofecoxib; methanol): slightly soluble
solubility (Solubility of rofecoxib; octanol): practically insoluble
solubility (Solubility of rofecoxib; water, listed as Rofecoxib): practically insoluble
solubility (Solubility of rofecoxib; water, listed as rofecoxib): insoluble
solubility (Solubility of rofecoxib; water, read-out: solubility in water): < 100 µg/mL
inhibition of COX-2 (COX-2): inhibits COX-2
incidence of gastrointestinal (GI) ulcers visualized at endoscopy compared to certain non-selective NSAIDs ([1]; FDA 2005): reduction
risk of serious GI bleeding compared to a non-selective NSAID (naproxen) ([1]; following chronic use, FDA 2005): reduce the risk
risk of serious adverse cardiovascular events compared to placebo ([1]; long-term controlled clinical trial / FDA 2005): increased risk
TEAE in preferred term ([2]; 12.5 mg): constipation
subjects who exhibited a TEAE ([2]; 12.5 mg): One
TEAE in preferred term ([2]; 25 mg): ear discomfort and headache
subjects who exhibited a TEAE ([2]; 25 mg): two
severity of all reported TEAE ([2]; 102 PK study): mild
related TEAE, serious TEAE, TEAE leading to study discontinuation, or severe TEAE ([2]; 102 PK study, all doses): No subjects
subjects who exhibited a TEAE, total ([2]; 102 PK study, all doses): three
incidence of TEAE leading to study discontinuation ([2]; at any dosage): no incidence
incidence of related TEAE ([2]; at any dosage): no incidence
incidence of serious TEAE ([2]; at any dosage): no incidence
Processed Sample Stability ([3]; at 4° C.): 174 Hours at 4 °C
Stock Solution Stability in Dimethyl Sulfoxide ([3]; at Ambient Temperature): 17 Hours at Ambient Temperature
Benchtop Stability in Plasma ([3]; at Ambient Temperature, human plasma): 26 Hours at Ambient Temperature
Stock Solution Stability in Dimethyl Sulfoxide ([3]; at −20° C.): 202 Days at −20 °C
Freeze/Thaw Stability in Plasma ([3]; at −20° C. and −70° C.): 5 Cycles at −20 °C and −70 °C
Long-term Storage Stability in Plasma ([3]; at −20° C. and −70° C.): 184 Days at −20 °C and −70 °C
Benchtop Stability in Whole Blood ([3]; in an Ice Bath when Centrifuged at 4° C. or Ambient Temperature): 2 Hours in an Ice Bath when
